Source: patent US9802921B2, “Fluoromethyl-substituted pyrrole carboxamides iv” (Grünenthal GmbH, priority 2013, dated 2017)

Target: T1, Human CaV2.2 channels (Homo sapiens, UniProt Q00975)
T1 construct: expressed in transfected cells
Assay: Fluorescent assay for CaV2.2 channels using potassium depolarization to induce channel opening (FLIPR, Fluo 4)
Type: cell-based
Conditions: read-out: Activity Category: %-Inhib (CaV2.2) @3 μM @30 mM KCl; 3 μM test compound; 30 mM KCl as printed; HEK293 cells stably expressing human CaV2.2
Source text: In the process, the Ca^2+ influx is quantified in the FLIPR assay with the aid of a Ca^2+-sensitive dye (type Fluo-4, Molecular Probes Europe BV, Leiden, the Netherlands) in a fluorescent imaging plate reader (FLIPR 3, Molecular Devices, Sunnyvale, USA), as described hereinafter.
Human CaV2.2 channels were stably expressed in HEK293 cells together with alpha2-delta and beta subunits of voltage gated calcium channels. In addition, an inwardly rectifying potassium channel (Kir2.3) was stably expressed in these cells to augment control of the cell membrane potential by the concentration of extracellular potassium ions. Raise of the extracellular potassium concentration leads to depolarization of the membrane potential and thus regulates the voltage dependent state of CaV2.2 channels. For preparation, cells were seeded in black poly-D-lysine coated 96-well plates (Becton Dickinson, Biocoat 4640) in 100 μL medium [500 mL DMEM/F-12 plus Glutamax (Invitrogen 31331-093) plus 5.5 mL MEM NEAA 100× (Invitrogen 11140-035) plus 50 mL FBS decomplemented (Invitrogen 10270-106) plus 200 μg/mL Geneticin (Invitrogen 10131-027) plus 50 μg/mL Hygromycin B (Invitrogen 10687-010) plus 2 μg/mL Blasticidin (anti-bl5b Invivo-Gen) plus 0.2 μg/mL Puromycin (A 11138-03)] at a cell density of 30.000 cells per well. Plates were incubated at 37° C. (5% CO2) for 20 to 23 h. On the day of experiment medium was discarded and cells were loaded with Fluo 4 by addition of 100 μL of basic assay buffer (10 mM HEPES, 1 mM KCl, 149 mM NaCl, 0.8 mM CaCl2, 1.7 mM MgCl2, 10 mM Glucose, 0.1% BSA. pH 7.4) containing 2 μM Fluo 4 (Molecular Probes; F-14201), 0.01% pluronic acid (Molecular Probes; P-6866) and 2.5 mM probenecid (Molecular Probes; P36400). Cells were incubated in the dark at 25° C. for 60 min. Then dye containing buffer was discarded and 100 μL basic (1 mM KCl) or alternative (30 mM KCl) assay buffer was added. The alternative assay buffer contained altered concentrations of KCl (30 mM) and NaCl (120 mM) and was used in order to promote the inactivated channel state. After that 25 μL of basic or alternative assay buffer with or without test compound were added and cells were incubated again in the dark at 25° C. for 15 min. Fluorescence intensity was measured on a FLIPR 3 instrument (Molecular Devices Corp., Sunnyvale, Calif.) with excitation at 480 nm and emission at 535 nm. After continuously reading fluorescence for 30 sec, 50 μL of basic assay buffer containing 210 mM KCl (NaCl omitted) were added for depolarization. Peak fluorescent signal intensity was determined and the amplitude of the peak signal, normalized to base line, was used to measure channel inhibition by test compounds.

T1 sequence (Q00975 whole entry): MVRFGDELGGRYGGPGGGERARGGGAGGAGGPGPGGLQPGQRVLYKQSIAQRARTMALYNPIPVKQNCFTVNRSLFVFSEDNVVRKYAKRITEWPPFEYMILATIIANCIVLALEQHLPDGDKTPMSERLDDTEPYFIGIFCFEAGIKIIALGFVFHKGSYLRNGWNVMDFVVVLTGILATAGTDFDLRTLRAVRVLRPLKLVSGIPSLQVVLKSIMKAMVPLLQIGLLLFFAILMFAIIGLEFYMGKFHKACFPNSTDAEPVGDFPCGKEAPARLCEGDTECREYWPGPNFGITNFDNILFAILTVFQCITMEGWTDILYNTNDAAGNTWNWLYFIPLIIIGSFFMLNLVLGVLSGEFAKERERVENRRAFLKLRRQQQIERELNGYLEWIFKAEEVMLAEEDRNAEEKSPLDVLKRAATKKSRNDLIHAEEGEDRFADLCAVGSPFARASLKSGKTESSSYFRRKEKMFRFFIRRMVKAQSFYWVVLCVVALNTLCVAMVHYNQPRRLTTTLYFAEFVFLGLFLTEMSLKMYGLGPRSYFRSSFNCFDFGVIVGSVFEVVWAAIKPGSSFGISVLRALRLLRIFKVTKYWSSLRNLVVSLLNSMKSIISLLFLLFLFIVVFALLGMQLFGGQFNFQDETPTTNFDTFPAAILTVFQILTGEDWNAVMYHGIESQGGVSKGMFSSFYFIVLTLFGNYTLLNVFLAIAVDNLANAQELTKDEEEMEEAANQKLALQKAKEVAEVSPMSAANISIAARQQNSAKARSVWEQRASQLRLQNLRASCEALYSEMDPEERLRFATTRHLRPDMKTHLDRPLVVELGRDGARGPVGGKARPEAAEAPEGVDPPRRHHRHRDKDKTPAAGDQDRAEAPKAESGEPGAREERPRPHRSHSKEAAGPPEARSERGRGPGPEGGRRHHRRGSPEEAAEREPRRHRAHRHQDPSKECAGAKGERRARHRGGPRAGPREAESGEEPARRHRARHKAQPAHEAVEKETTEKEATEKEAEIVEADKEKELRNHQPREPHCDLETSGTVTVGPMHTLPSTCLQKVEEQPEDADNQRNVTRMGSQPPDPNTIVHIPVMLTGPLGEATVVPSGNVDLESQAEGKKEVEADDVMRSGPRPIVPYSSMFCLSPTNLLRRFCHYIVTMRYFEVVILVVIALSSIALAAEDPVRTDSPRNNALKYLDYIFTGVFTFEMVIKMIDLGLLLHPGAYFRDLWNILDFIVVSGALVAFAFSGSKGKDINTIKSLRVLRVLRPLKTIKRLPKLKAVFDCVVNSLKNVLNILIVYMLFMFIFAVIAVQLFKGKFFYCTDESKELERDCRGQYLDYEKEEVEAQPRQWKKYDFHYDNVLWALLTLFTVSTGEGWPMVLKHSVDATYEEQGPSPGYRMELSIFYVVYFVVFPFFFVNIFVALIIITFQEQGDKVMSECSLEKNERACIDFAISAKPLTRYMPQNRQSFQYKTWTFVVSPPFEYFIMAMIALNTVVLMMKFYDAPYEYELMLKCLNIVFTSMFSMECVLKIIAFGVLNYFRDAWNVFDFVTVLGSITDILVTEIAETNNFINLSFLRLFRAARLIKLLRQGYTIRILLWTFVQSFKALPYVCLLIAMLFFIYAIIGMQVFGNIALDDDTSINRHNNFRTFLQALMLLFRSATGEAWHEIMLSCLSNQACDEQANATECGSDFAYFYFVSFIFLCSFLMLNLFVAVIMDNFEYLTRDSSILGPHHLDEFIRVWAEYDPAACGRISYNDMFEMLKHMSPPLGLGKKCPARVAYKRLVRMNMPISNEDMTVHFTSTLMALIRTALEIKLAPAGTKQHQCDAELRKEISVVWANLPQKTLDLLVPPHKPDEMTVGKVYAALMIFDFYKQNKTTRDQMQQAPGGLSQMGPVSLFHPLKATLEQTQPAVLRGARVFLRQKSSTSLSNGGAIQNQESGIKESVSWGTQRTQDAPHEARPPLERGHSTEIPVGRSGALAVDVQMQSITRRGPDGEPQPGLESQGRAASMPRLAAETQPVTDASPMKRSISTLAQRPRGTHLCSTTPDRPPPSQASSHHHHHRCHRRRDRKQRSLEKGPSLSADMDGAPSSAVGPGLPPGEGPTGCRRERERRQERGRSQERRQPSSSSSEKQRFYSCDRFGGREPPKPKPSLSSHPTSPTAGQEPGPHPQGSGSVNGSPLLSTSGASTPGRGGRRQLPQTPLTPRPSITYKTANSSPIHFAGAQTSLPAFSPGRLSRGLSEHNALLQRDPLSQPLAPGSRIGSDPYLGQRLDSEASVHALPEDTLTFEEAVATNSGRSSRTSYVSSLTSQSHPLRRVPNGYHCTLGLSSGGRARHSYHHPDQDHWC
T1 sequence (P54289 25-1103, further chain): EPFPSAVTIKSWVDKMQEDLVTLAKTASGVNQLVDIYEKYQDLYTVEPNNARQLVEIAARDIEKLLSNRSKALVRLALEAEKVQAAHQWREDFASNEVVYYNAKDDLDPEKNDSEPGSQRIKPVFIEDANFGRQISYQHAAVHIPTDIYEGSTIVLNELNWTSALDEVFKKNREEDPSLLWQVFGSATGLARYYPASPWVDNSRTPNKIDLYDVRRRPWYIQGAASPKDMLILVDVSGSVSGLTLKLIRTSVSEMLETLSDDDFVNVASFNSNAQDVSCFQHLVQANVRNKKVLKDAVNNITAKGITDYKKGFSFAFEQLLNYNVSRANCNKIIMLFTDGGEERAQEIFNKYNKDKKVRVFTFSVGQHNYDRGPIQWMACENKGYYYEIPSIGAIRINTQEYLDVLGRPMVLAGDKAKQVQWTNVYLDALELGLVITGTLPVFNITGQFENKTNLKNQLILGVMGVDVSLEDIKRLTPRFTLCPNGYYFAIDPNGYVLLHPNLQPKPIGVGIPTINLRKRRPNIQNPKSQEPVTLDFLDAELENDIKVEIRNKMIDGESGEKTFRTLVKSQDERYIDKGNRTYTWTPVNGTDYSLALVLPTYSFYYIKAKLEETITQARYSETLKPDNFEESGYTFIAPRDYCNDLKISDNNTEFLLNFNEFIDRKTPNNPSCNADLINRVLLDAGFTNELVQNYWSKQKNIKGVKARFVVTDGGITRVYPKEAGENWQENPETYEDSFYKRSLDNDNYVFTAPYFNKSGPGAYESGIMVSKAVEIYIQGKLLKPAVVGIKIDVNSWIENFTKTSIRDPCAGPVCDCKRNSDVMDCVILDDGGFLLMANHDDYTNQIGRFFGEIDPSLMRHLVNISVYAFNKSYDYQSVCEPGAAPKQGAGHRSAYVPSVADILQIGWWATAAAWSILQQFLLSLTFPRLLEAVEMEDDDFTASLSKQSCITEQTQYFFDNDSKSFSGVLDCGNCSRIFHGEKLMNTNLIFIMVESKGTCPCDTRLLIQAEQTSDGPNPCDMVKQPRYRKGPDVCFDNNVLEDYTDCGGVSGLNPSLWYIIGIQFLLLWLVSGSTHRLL
T1 sequence (P54284 whole entry, further chain): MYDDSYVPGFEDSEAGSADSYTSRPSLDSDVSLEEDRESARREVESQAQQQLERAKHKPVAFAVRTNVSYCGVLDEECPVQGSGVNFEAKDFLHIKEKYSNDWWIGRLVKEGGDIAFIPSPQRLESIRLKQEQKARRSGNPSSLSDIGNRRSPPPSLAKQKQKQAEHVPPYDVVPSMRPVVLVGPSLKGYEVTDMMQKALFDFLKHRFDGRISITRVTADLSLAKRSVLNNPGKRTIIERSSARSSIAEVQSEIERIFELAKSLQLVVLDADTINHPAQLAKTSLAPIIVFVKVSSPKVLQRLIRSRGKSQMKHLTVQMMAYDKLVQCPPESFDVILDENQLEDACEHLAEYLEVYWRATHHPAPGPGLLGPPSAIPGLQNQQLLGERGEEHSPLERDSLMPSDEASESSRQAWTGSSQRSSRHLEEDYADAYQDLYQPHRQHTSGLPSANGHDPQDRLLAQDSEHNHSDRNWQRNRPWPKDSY

Compound	inhibition at 3 µM [%]
Cc1cc(Cn2c(C(=O)N(C)C(C)C)c(-c3ccc(Cl)cc3)c(C)c2C(F)(F)F)no1 [Example 068, 3-(4-Chlorophenyl)-N-isopropyl-N,4-dimethyl-1-[(5-methyl-isoxazol-3-yl)-methyl]-5-(trifluoromethyl)-1H-pyrrole-2-carboxylic acid amide]	> 95
Cc1c(-c2ccc(Cl)cc2)c(C(=O)N2CCOC(C)(C)C2)n(Cc2ncccn2)c1C(F)(F)F [Example 040, [3-(4-Chlorophenyl)-4-methyl-1-(pyrimidin-2-yl-methyl)-5-(trifluoromethyl)-1H-pyrrol-2-yl]-(2,2-dimethyl-morpholin-4-yl)-methanone]	75 to 95
CN(CC(C)(C)C)C(=O)c1c(-c2ccc(Cl)cc2)cc(C(F)(F)F)n1Cc1ncn(C)n1 [Example 013, 3-(4-Chlorophenyl)-N-(2,2-dimethyl-propyl)-N-methyl-1-[(1-methyl-1H-[1,2,4]triazol-3-yl)-methyl]-5-(trifluoromethyl)-1H-pyrrole-2-carboxylic acid amide]	75 to 95
CN(CC(C)(C)C)C(=O)c1c(-c2ccc(Cl)cc2)cc(C(F)(F)F)n1Cc1ccc(F)cn1 [Example 029, 3-(4-Chlorophenyl)-N-(2,2-dimethyl-propyl)-1-[(5-fluoro-pyridin-2-yl)-methyl]-N-methyl-5-(trifluoromethyl)-1H-pyrrole-2-carboxylic acid amide]	> 95
Cc1cc(CN(C)C(=O)c2c(-c3ccc(Cl)cc3F)c(C)c(C(F)(F)F)n2Cc2ncccn2)no1 [Example 066, 3-(4-Chloro-2-fluoro-phenyl)-N,4-dimethyl-N-[(5-methyl-isoxazol-3-yl)-methyl]-1-(pyrimidin-2-yl-methyl)-5-(trifluoromethyl)-1H-pyrrole-2-carboxylic acid amide]	> 95
Cc1cnc(Cn2c(C(F)(F)F)cc(-c3ccc(Cl)cc3)c2C(=O)N(C)CC(C)(C)C)cn1 [Example 030, 3-(4-Chlorophenyl)-N-(2,2-dimethyl-propyl)-N-methyl-1-[(5-methyl-pyrazin-2-yl)-methyl]-5-(trifluoromethyl)-1H-pyrrole-2-carboxylic acid amide]	> 95
Cc1c(-c2ccc(Cl)cc2)c(C(=O)N2CCOCC2)n(Cc2cccc(=O)[nH]2)c1C(F)(F)F [Example 054, 6-[[3-(4-Chlorophenyl)-4-methyl-2-(morpholine-4-carbonyl)-5-(trifluoromethyl)-1H-pyrrol-1-yl]-methyl]-1H-pyridin-2-one]	75 to 95
CN(CC(C)(C)C)C(=O)c1c(-c2ccc(Cl)cc2)cc(C(F)(F)F)n1Cc1nc(C(F)(F)F)no1 [Example 010, 3-(4-Chlorophenyl)-N-(2,2-dimethyl-propyl)-N-methyl-5-(trifluoromethyl)-1-[[3-(trifluoromethyl)-[1,2,4]oxadiazol-5-yl]-methyl]-1H-pyrrole-2-carboxylic acid amide]	75 to 95
CN(CC(C)(C)C)C(=O)c1c(-c2ccc(Cl)cc2)cc(C(F)(F)F)n1Cc1ncccn1 [Example 037, 3-(4-Chlorophenyl)-N-(2,2-dimethyl-propyl)-N-methyl-1-(pyrimidin-2-yl-methyl)-5-(trifluoromethyl)-1H-pyrrole-2-carboxylic acid amide]	> 95
Cc1ccnc(Cn2c(C(F)(F)F)cc(-c3ccc(Cl)cc3)c2C(=O)N(C)CC(C)(C)C)n1 [Example 036, 3-(4-Chlorophenyl)-N-(2,2-dimethyl-propyl)-N-methyl-1-[(4-methyl-pyrimidin-2-yl)-methyl]-5-(trifluoromethyl)-1H-pyrrole-2-carboxylic acid amide]	> 95
Cc1nnc(Cn2c(C(F)(F)F)cc(-c3ccc(Cl)cc3)c2C(=O)N(C)CC(C)(C)C)o1 [Example 014, 3-(4-Chlorophenyl)-N-(2,2-dimethyl-propyl)-N-methyl-1-[(5-methyl-[1,3,4]oxadiazol-2-yl)-methyl]-5-(trifluoromethyl)-1H-pyrrole-2-carboxylic acid amide]	75 to 95
Cc1cnc(Cn2c(C(=O)N3CCOCC3)c(-c3ccc(Cl)cc3)c(C)c2C(F)(F)F)nc1 [Example 045, [3-(4-Chlorophenyl)-4-methyl-1-[(5-methyl-pyrimidin-2-yl)-methyl]-5-(trifluoromethyl)-1H-pyrrol-2-yl]-morpholin-4-yl-methanone]	> 95
Cc1c(-c2ccc(Cl)cc2)c(C(=O)N2CCOCC2)n(Cn2ccccc2=O)c1C(F)(F)F [Example 056, 1-[[3-(4-Chlorophenyl)-4-methyl-2-(morpholine-4-carbonyl)-5-(trifluoromethyl)-1H-pyrrol-1-yl]-methyl]-1H-pyridin-2-one]	75 to 95
Cc1cc(Cn2c(C(=O)N(C)C(C)C)c(-c3ccc(Cl)cc3)c(C)c2C(F)(F)F)on1 [Example 067, 3-(4-Chlorophenyl)-N-isopropyl-N,4-dimethyl-1-[(3-methyl-isoxazol-5-yl)-methyl]-5-(trifluoromethyl)-1H-pyrrole-2-carboxylic acid amide]	> 95
COc1cccc(Cn2c(C(=O)N3CCOCC3)c(-c3ccc(Cl)cc3)c(C)c2C(F)(F)F)n1 [Example 041, [3-(4-Chlorophenyl)-1-[(6-methoxy-pyridin-2-yl)-methyl]-4-methyl-5-(trifluoromethyl)-1H-pyrrol-2-yl]-morpholin-4-yl-methanone]	> 95
Cc1ncc(Cn2c(C(=O)N3CCOCC3)c(-c3ccc(Cl)cc3)c(C)c2C(F)(F)F)cn1 [Example 043, [3-(4-Chlorophenyl)-4-methyl-1-[(2-methyl-pyrimidin-5-yl)-methyl]-5-(trifluoromethyl)-1H-pyrrol-2-yl]-morpholin-4-yl-methanone]	75 to 95
Cc1c(-c2ccc(Cl)cc2)c(C(=O)N2CCOCC2)n(Cc2ccc[nH]c2=O)c1C(F)(F)F [Example 053, 3-[[3-(4-Chlorophenyl)-4-methyl-2-(morpholine-4-carbonyl)-5-(trifluoromethyl)-1H-pyrrol-1-yl]-methyl]-1H-pyridin-2-one]	40 to 75
CN(CC(C)(C)C)C(=O)c1c(-c2ccc(Cl)cc2)cc(C(F)(F)F)n1Cc1cncn1C [Example 026, 3-(4-Chlorophenyl)-N-(2,2-dimethyl-propyl)-N-methyl-1-[(3-methyl-3H-imidazole-4-yl)-methyl]-5-(trifluoromethyl)-1H-pyrrole-2-carboxylic acid amide]	75 to 95
Cc1c(-c2ccc(Cl)cc2)c(C(=O)N2CCOCC2)n(Cc2cnn(C)c2)c1C(F)(F)F [Example 023, [3-(4-Chlorophenyl)-4-methyl-1-[(1-methyl-1H-pyrazol-4-yl)-methyl]-5-(trifluoromethyl)-1H-pyrrol-2-yl]-morpholin-4-yl-methanone]	> 95
Cc1cnc(Cn2c(C(=O)N3CCOCC3)c(-c3ccc(Cl)cc3)c(C)c2C(F)(F)F)cn1 [Example 042, [3-(4-Chlorophenyl)-4-methyl-1-[(5-methyl-pyrazin-2-yl)-methyl]-5-(trifluoromethyl)-1H-pyrrol-2-yl]-morpholin-4-yl-methanone]	> 95
Cc1ccnc(Cn2c(C(=O)N3CCOCC3)c(-c3ccc(Cl)cc3)c(C)c2C(F)(F)F)n1 [Example 046, [3-(4-Chlorophenyl)-4-methyl-1-[(4-methyl-pyrimidin-2-yl)-methyl]-5-(trifluoromethyl)-1H-pyrrol-2-yl]-morpholin-4-yl-methanone]	> 95
Cc1c(-c2ccc(Cl)cc2)c(C(=O)N2CCOCC2)n(Cc2ncn[nH]2)c1C(F)(F)F [Example 060, [3-(4-Chlorophenyl)-4-methyl-1-(1H-[1,2,4]triazol-3-yl-methyl)-5-(trifluoromethyl)-1H-pyrrol-2-yl]-morpholin-4-yl-methanone]	40 to 75
Cc1c(-c2ccc(Cl)cc2)c(C(=O)N(C)CCS(C)(=O)=O)n(Cc2ncccn2)c1C(F)(F)F [Example 039, 3-(4-Chlorophenyl)-N,4-dimethyl-N-(2-methylsulfonyl-ethyl)-1-(pyrimidin-2-yl-methyl)-5-(trifluoromethyl)-1H-pyrrole-2-carboxylic acid amide]	75 to 95
